Patent US20210267205A1, “METHOD OF CONTROLLING WEEDS” (SUMITOMO CHEMICAL COMPANY, LIMITED, priority 2018, published 2021)

Key:
Format in all cases: in vivo
Echinochloa crus-galli [1] = assay: Herbicidal effect, soil spray the day after seeding, pot test (Example 1154); details: 150 L per 10000 m^2, 30 PSI, 10 days in greenhouse, scale of 0 to 100
Method: (§1) Echinochloa crus-galli was seeded on a plastic pot filled with a soil. On the next day, an aqueous diluted liquid of trifludimoxazin (prepared by diluting an emuslfiable concentrate of trifludimoxazin with water) was uniformly sprayed onto the pot through the nozzles given in Table 2 at the amount of the aqueous diluted liquid of 150 L per 10000 m^2 so that the application rate of trifludimoxazin might be 30 or 15 g per 10000 m^2. The spray pressure was 30 PSI and the spray height (distance between the nozzle outlet and the soil surface of the pot) was 60 cm. The air temperature was 17 degrees Celsius, the wind speed was 2.5 m/s, and the relative humidity was 65% at the timing of application. The sprayed pots were placed in a greenhouse for 10 days to grow Echinochloa crus-galli and then herbicidal effects were evaluated on a scale of 0 to 100.

[2] = system: Waterhemp having a Gly210 deletion mutation in PPO2; assay: Herbicidal effect, soil spray the day after seeding, pot test (Example 1155); details: 10 g per 10000 m^2; 100 L per 10000 m^2; 30 PSI; 10 days in greenhouse; scale of 0 to 100
Method: as §1, with “Waterhemp having a Gly210 deletion mutation in PPO2, was” for “Echinochloa crus-galli was”, “Table 3” for “Table 2”, “of 100” for “of 150”, “be 10” for “be 30 or 15”, “grow waterhemp” for “grow Echinochloa crus-galli”

[3] = system: Waterhemp having a Gly210 deletion mutation in PPO2; assay: Herbicidal effect, soil spray the day after seeding, pot test (Example 1156); details: 15 g per 10000 m^2; 150 L per 10000 m^2; 30 PSI; 10 days in greenhouse; scale of 0 to 100
Method: as §1, with “Waterhemp having a Gly210 deletion mutation in PPO2 was” for “Echinochloa crus-galli was”, “Table 4” for “Table 2”, “be” for “be 30 or”, “grow waterhemp” for “grow Echinochloa crus-galli”

Echinochloa crus-galli [4] = assay: Herbicidal effect, soil spray the day after seeding, pot test (Example 1153); details: 100 L per 10000 m^2, 30 PSI, 10 days in greenhouse, scale of 0 to 100
Method: as §1, with “in Table 1 at the” for “in Table 2 at the”, “liquid of 100 L per” for “liquid of 150 L per”, “might be 20 or 10” for “might be 30 or 15”, “20 or 10 g per” for “30 or 15 g per”, “evaluated on scale of” for “evaluated on a scale of”

[5] = system: Amaranthus palmeri, waterhemp and ragweeds having mutations in PPO2; assay: Effect on weeds, foliar treatment 21 days after sowing (Example 3); details: 10, 20, 40, 80, or 160 g/ha, 200 L/ha, drift-reducing nozzle TTI11004, examined 14 days after treatment
Excerpt: Amaranthus palmeri having an Arg128Gly mutation in PPO2, Amaranthus palmeri having an Arg128Met mutation in PPO2, Amaranthus palmeri having a Gly210 deletion mutation in PPO2, Amaranthus palmeri having a Gly399A1a mutation in PPO2, waterhemp having a Gly210 deletion mutation in PP02, ragweeds having Arg128Leu in PP02, and a Roundup Ready 2 Xtend soybean are sown in a plastic pot. Then, the weeds and soybean are cultivated in a greenhouse and a compound X is applied to perform foliar treatment by using a drift-reducing nozzle (TTI11004 manufactured by Teejet Company) 21 days after sowing. The amount of the compound X to be applied is 10, 20, 40, 80, or 160 g/ha and the amount of spray dilution is 200 L/ha. Then, the weeds and soybean are further cultivated in a greenhouse to examine the effects on the weeds and phytotoxic effects on the soybean 14 days after treatment.

[6] = system: Amaranthus palmeri, waterhemp and ragweeds having mutations in PPO2; assay: Effect on weeds, soil surface application on day of sowing weeds and soybean (Example 2); details: 10, 20, 40, 80, or 160 g/ha, 200 L/ha, drift-reducing nozzle TTI11004, examined after 21 days
Excerpt: (§2) Amaranthus palmeri having an Arg128Gly mutation in PPO2, Amaranthus palmeri having an Arg128Met mutation in PPO2, Amaranthus palmeri having a Gly210 deletion mutation in PPO2, Amaranthus palmeri having a Gly399Ala mutation in PPO2, waterhemp having a Gly210 deletion mutation in PP02, ragweeds having Arg128Leu in PP02, and a Roundup Ready 2 Xtend soybean are sown in a plastic pot. On the same day, a compound X is applied to the surface of soil by using a drift-reducing nozzle (TTI11004 manufactured by Teejet Company). The amount of the compound X to be applied is 10, 20, 40, 80, or 160 g/ha and the amount of spray dilution is 200 L/ha. Then, the weeds and soybean are cultivated in a greenhouse to examine the effects on the weeds and phytotoxic effects on the soybean after 21 days.

[7] = system: Amaranthus palmeri, waterhemp and ragweeds having mutations in PPO2; assay: Effect on weeds, soil surface application on day of weed sowing, soybean sown after 7 days (Example 1); details: 10, 20, 40, 80, or 160 g/ha, 200 L/ha, drift-reducing nozzle TTI11004, examined after 14 days
Excerpt: as §2, with “in PPO2, and” for “in PP02,”, “in PPO2” for “in PP02, and a Roundup Ready 2 Xtend soybean”, “Then, these” for “Then, the”, “weeds” for “weeds and soybean”, “greenhouse and Roundup Ready 2 Xtend soybean seeds are sown after 7 days,” for “greenhouse”, “after 14” for “after 21”

Row | SMILES | Herbicidal effect on Echinochloa crus-galli, Air induction nozzle (TTI11004) (Echinochloa crus-galli [1]; 15 g per 10000 m^2) | Herbicidal effect on Echinochloa crus-galli, Standard nozzle (Teejet11004) (Echinochloa crus-galli [1]; 15 g per 10000 m^2) | Herbicidal effect on Echinochloa crus-galli, Air induction nozzle (TTI11004) (Echinochloa crus-galli [1]; 30 g per 10000 m^2) | Herbicidal effect on Echinochloa crus-galli, Standard nozzle (Teejet11004) (Echinochloa crus-galli [1]; 30 g per 10000 m^2) | Herbicidal effect on Waterhemp having a Gly210 deletion mutation in PPO2, Air induction nozzle (TTI11002) [2] | Herbicidal effect on Waterhemp having a Gly210 deletion mutation in PPO2, Pre-orifice nozzle (DG11002) [2] | Herbicidal effect on Waterhemp having a Gly210 deletion mutation in PPO2, Standard nozzle (Teejet11002) [2] | Herbicidal effect on Waterhemp having a Gly210 deletion mutation in PPO2, Air induction nozzle (TTI11004) [3] | Herbicidal effect on Waterhemp having a Gly210 deletion mutation in PPO2, Standard nozzle (Teejet11004) [3] | Herbicidal effect on Echinochloa crus-galli, Air induction nozzle (TTI11002) (Echinochloa crus-galli [4]; 10 g per 10000 m^2) | Herbicidal effect on Echinochloa crus-galli, Standard nozzle (Teejet11002) (Echinochloa crus-galli [4]; 10 g per 10000 m^2) | Herbicidal effect on Echinochloa crus-galli, Air induction nozzle (TTI11002) (Echinochloa crus-galli [4]; 20 g per 10000 m^2) | Herbicidal effect on Echinochloa crus-galli, Standard nozzle (Teejet11002) (Echinochloa crus-galli [4]; 20 g per 10000 m^2) | effects on the weeds [5] | effects on the weeds [6] | effects on the weeds [7]
1 | C#CCN1C(=O)C(F)(F)Oc2cc(F)c(-n3c(=O)n(C)c(=S)n(C)c3=O)cc21 [Trifludimoxazin, trifludimoxazin] | 70 | 30 | 90 | 40 | 90 | 90 | 50 | 95 | 60 | 60 | 20 | 80 | 30 | – | – | –
2 | CCOC(=O)COc1ncccc1Oc1cc(-n2c(=O)cc(C(F)(F)F)n(C)c2=O)c(F)cc1Cl [compound X, Ethyl [3-[2-chloro-4-fluoro-5-(1-methyl-6-trifluoromethyl-2,4-dioxo-1,2,3,4-tetrahydropyrimidine-3-yl)phenoxy]-2-pyridyloxy]acetate] | – | – | – | – | – | – | – | – | – | – | – | – | – | valuable effect | valuable effect | valuable effect
